IC90 data for 22 compounds are collected here from patent US20220396565A1 (Hoffmann-La Roche Inc., priority 2020, published 2022).

Structures are written as SMILES. Counter-ions that a name gives are not always drawn.

In the assay the test system is Acinetobacter baumannii ATCC17961. Kind of assay: Antimicrobial susceptibility testing: 90% growth inhibitory concentration (IC90) determination, Iso-Sensitest broth. To be noted: Acinetobacter baumannii, ATCC17961, 90% growth inhibitory concentration, Acinetobacter baumannii ATCC17961, Iso-Sensitest broth; read-out: ATCC 17961 IC90. The format is cell-based. On the procedure: The in vitro antimicrobial activity of the compounds was determined according to the following procedure:
The assay used a 10-points Iso-Sensitest broth medium to measure quantitatively the in vitro activity of the compounds against Acinetobacter baumannii ATCC17978 or ATCC17961.
Stock compounds in DMSO were serially twofold diluted (e.g. range from 10 to 0.02 μM final concentration) in 384 wells microtiter plates and inoculated with 49 μl the bacterial suspension in Iso-Sensitest medium to have a final cell concentration of ˜5×10^(5) CFU/ml in a final volume/well of 50 ul/well. Microtiter plates were incubated at 35±2° C.
Bacterial cell growth was determined with the measurement of optical density at k=600 nm each 20 minutes over a time course of 16 h. Growth inhibition was calculated during the logarithmic growth of the bacterial cells with determination of the concentration inhibiting 50% (IC50) and 90% (IC90) of the growth.
Table 1 provides the 90% growth inhibitory concentrations (IC90) in micromoles per liter of the compounds of present invention obtained against the strain Acinetobacter baumannii ATCC17978 or ATCC17961.
Usually IC90 stands for the point of the concentration-response curve where the effect stands at 90%. For the compound `Cn1c(-c2ccc(OCF)c(F)c2F)cnc1C(=O)Nc1ccc(C(=O)N2CCC(C(=O)N[C@H]3CNC[C@H]3F)CC2)c(Cl)c1` [Example 51, 1-[2-chloro-4-[[5-[2,3-difluoro-4-(fluoromethoxy)phenyl]-1-methyl-imidazole-2-carbonyl]amino]benzoyl]-N-[(3S,4R)-4-fluoropyrrolidin-3-yl]piperidine-4-carboxamide trifluoroacetate], the 90% effect concentration (IC90) is 30 nM.
Next, `CN1CCC(NNC(=O)C2CCN(C(=O)c3ccc(NC(=O)c4ncc(-c5ccc(OCF)c(F)c5F)n4C)cc3Cl)CC2)CC1` [Example 52, N-[3-chloro-4-[4-[[(1-methyl-4-piperidyl)amino]carbamoyl]piperidine-1-carbonyl]phenyl]-5-[2,3-difluoro-4-(fluoromethoxy)phenyl]-1-methyl-imidazole-2-carboxamide trifluoroacetate]: 130 nM.
As to `Cn1c(-c2ccc(OCF)c(F)c2Cl)cnc1C(=O)Nc1ccc(C(=O)N2CCC(C(=O)N[C@@H]3CNC[C@H]3O)CC2)c(Cl)c1` [Example 53, 1-[2-chloro-4-[[5-[2-chloro-3-fluoro-4-(fluoromethoxy)phenyl]-1-methyl-imidazole-2-carbonyl]amino]benzoyl]-N-[(3R,4R)-4-hydroxypyrrolidin-3-yl]piperidine-4-carboxamide formate], the IC90 was determined as 50 nM.
Next, `Cn1c(-c2ccc(OCF)c(F)c2F)cnc1C(=O)Nc1ccc(C(=O)N2CCC(C(=O)NC[C@@H]3CCNC3)CC2)c(Cl)c1` [Example 54, 1-[2-chloro-4-[[5-[2,3-difluoro-4-(fluoromethoxy)phenyl]-1-methyl-imidazole-2-carbonyl]amino]benzoyl]-N-[[(3R)-pyrrolidin-3-yl]methyl]piperidine-4-carboxamide formate]: 40 nM; `COc1ccc(-c2cnc(C(=O)Nc3ccc(C(=O)N4CCC(C(=O)NC[C@@H]5CCNC5)CC4)c(Cl)c3)n2C)c(F)c1F` [Example 55, 1-[2-chloro-4-[[5-(2,3-difluoro-4-methoxy-phenyl)-1-methyl-imidazole-2-carbonyl]amino]benzoyl]-N-[[(3R)-pyrrolidin-3-yl]methyl]piperidine-4-carboxamide formate]: 50 nM.
In the case of `COc1ccc(-c2cnc(C(=O)Nc3ccc(C(=O)N4CCC(C(=O)NC[C@H]5CCNC5)CC4)c(Cl)c3)n2C)c(F)c1F` [Example 56, 1-[2-chloro-4-[[5-(2,3-difluoro-4-methoxy-phenyl)-1-methyl-imidazole-2-carbonyl]amino]benzoyl]-N-[[(3S)-pyrrolidin-3-yl]methyl]piperidine-4-carboxamide formate], the IC90 amounted to 70 nM.
The result for `COc1ccc(-c2cnc(C(=O)Nc3ccc(C(=O)N4CCC(C(=O)NCC5(O)CNC5)CC4)c(Cl)c3)n2C)c(F)c1F` [Example 57, 1-[2-chloro-4-[[5-(2,3-difluoro-4-methoxy-phenyl)-1-methyl-imidazole-2-carbonyl]amino]benzoyl]-N-[(3-hydroxyazetidin-3-yl)methyl]piperidine-4-carboxamide formate] reads 60 nM; that for `COc1ccc(-c2cnc(C(=O)Nc3ccc(C(=O)N4CCC(C(=O)N[C@H]5CCNC5)CC4)c(Cl)c3)n2C)c(F)c1F` [Example 58, 1-[2-chloro-4-[[5-(2,3-difluoro-4-methoxy-phenyl)-1-methyl-imidazole-2-carbonyl]amino]benzoyl]-N-[(3S)-pyrrolidin-3-yl]piperidine-4-carboxamide formate], 50 nM; that for `COc1ccc(-c2cnc(C(=O)Nc3ccc(C(=O)N4CCC(C(=O)N[C@H]5[C@@H]6CNC[C@@H]65)CC4)c(Cl)c3)n2C)c(F)c1F` [Example 59, N-[(1S,5R)-3-azabicyclo[3.1.0]hexan-6-yl]-1-[2-chloro-4-[[5-(2,3-difluoro-4-methoxy-phenyl)-1-methyl-imidazole-2-carbonyl]amino]benzoyl] piperidine-4-carboxamide formate], 50 nM.
The result for `COc1ccc(-c2cnc(C(=O)Nc3ccc(C(=O)N4CCC(C(=O)N[C@@H]5CNC[C@H]5O)CC4)c(Cl)c3)n2C)c(F)c1F` [Example 60, 1-[2-chloro-4-[[5-(2,3-difluoro-4-methoxy-phenyl)-1-methyl-imidazole-2-carbonyl]amino]benzoyl]-N-[(3R,4R)-4-hydroxypyrrolidin-3-yl]piperidine-4-carboxamide formate] reads 50 nM; that for `Cn1c(-c2ccc(OC(F)F)c(F)c2F)cnc1C(=O)Nc1ccc(C(=O)N2CCC(C(=O)N[C@H]3[C@@H]4CNC[C@@H]43)CC2)c(Cl)c1` [Example 61, N-[(1S,5R)-3-azabicyclo[3.1.0]hexan-6-yl]-1-[2-chloro-4-[[5-[4-(difluoromethoxy)-2,3-difluoro-phenyl]-1-methyl-imidazole-2-carbonyl]amino]benzoyl] piperidine-4-carboxamide formate], 60 nM.
Next, `Cn1c(-c2ccc(OCF)c(F)c2Cl)cnc1C(=O)Nc1ccc(C(=O)N2CCC(C(=O)NC[C@@H]3CCNC3)CC2)c(Cl)c1` [Example 62, 1-[2-chloro-4-[[5-[2-chloro-3-fluoro-4-(fluoromethoxy)phenyl]-1-methyl-imidazole-2-carbonyl]amino]benzoyl]-N-[[(3R)-pyrrolidin-3-yl]methyl]piperidine-4-carboxamide formate]: 60 nM; `COc1ccc(-c2cnc(C(=O)Nc3ccc(C(=O)N4CCC(C(=O)NCC5CCN5)CC4)c(Cl)c3)n2C)c(F)c1F` (stereo not shown) [Example 63, N-(azetidin-2-ylmethyl)-1-[2-chloro-4-[[5-(2,3-difluoro-4-methoxy-phenyl)-1-methyl-imidazole-2-carbonyl]amino]benzoyl] piperidine-4-carboxamide formate]: 90 nM; `COc1ccc(-c2cnc(C(=O)Nc3ccc(C(=O)N4CCC(C(=O)N[C@@H]5CCNC5)CC4)c(Cl)c3)n2C)c(F)c1F` [Example 64, 1-[2-chloro-4-[[5-(2,3-difluoro-4-methoxy-phenyl)-1-methyl-imidazole-2-carbonyl]amino]benzoyl]-N-[(3R)-pyrrolidin-3-yl]piperidine-4-carboxamide formate]: 60 nM.
`Cn1c(-c2ccc(OCF)c(F)c2Cl)cnc1C(=O)Nc1ccc(C(=O)N2CCC(C(=O)N[C@H]3CCNC3)CC2)c(Cl)c1` [Example 65, 1-[2-chloro-4-[[5-[2-chloro-3-fluoro-4-(fluoromethoxy)phenyl]-1-methyl-imidazole-2-carbonyl]amino]benzoyl]-N-[(3S)-pyrrolidin-3-yl]piperidine-4-carboxamide formate]: the IC90 came to 50 nM.
Next, `COc1ccc(-c2cnc(C(=O)Nc3ccc(C(=O)N4CC(C(=O)N5CC(CN)C5)C4)c(Cl)c3)n2C)c(F)c1F` [Example 66, N-[4-[3-[3-(aminomethyl)azetidine-1-carbonyl]azetidine-1-carbonyl]-3-chloro-phenyl]-5-(2,3-difluoro-4-methoxy-phenyl)-1-methyl-imidazole-2-carboxamide formate]: 140 nM.
Next, `COc1ccc(-c2cnc(C(=O)Nc3ccc(C(=O)N4CCC(C(=O)NCCC(=O)O)CC4)c(Cl)c3)n2C)c(F)c1F` [Example 67, 3-[[1-[2-chloro-4-[[5-(2,3-difluoro-4-methoxy-phenyl)-1-methyl-imidazole-2-carbonyl]amino]benzoyl]piperidine-4-carbonyl]amino]propanoic acid]: 3300 nM; `COc1ccc(-c2cnc(C(=O)Nc3ccc(C(=O)N4CCC(C(=O)NCCCC(=O)O)CC4)c(Cl)c3)n2C)c(F)c1F` [Example 68, 4-[[1-[2-chloro-4-[[5-(2,3-difluoro-4-methoxy-phenyl)-1-methyl-imidazole-2-carbonyl]amino]benzoyl]piperidine-4-carbonyl]amino]butanoic acid]: 2100 nM; `COc1ccc(-c2cnc(C(=O)Nc3ccc(C(=O)N4CC(C(=O)N5CCNCC5)C4)c(Cl)c3)n2C)c(F)c1F` [Example 69, N-[3-chloro-4-[3-(piperazine-1-carbonyl)azetidine-1-carbonyl]phenyl]-5-(2,3-difluoro-4-methoxy-phenyl)-1-methyl-imidazole-2-carboxamide formate]: 120 nM.
`COc1ccc(-c2cnc(C(=O)Nc3ccc(C(=O)N4CC(C(=O)N5C[C@H]6CNC[C@H]6C5)C4)c(Cl)c3)n2C)c(F)c1F` [Example 70, N-[4-[3-[(3aR,6aS)-2,3,3a,4,6,6a-hexahydro-1H-pyrrolo[3,4-c]pyrrole-5-carbonyl]azetidine-1-carbonyl]-3-chloro-phenyl]-5-(2,3-difluoro-4-methoxy-phenyl)-1-methyl-imidazole-2-carboxamide formate]: the IC90 came to 140 nM.
The result for `COc1ccc(-c2cnc(C(=O)Nc3ccc(C(=O)N4CCC(C(=O)N5C[C@H]6CCN[C@H]6C5)C4)c(Cl)c3)n2C)c(F)c1F` (stereo partly drawn) [Example 71, N-[4-[3-[(3aR,6aR)-2,3,3a,4,6,6a-hexahydro-1H-pyrrolo[3,4-b]pyrrole-5-carbonyl]pyrrolidine-1-carbonyl]-3-chloro-phenyl]-5-(2,3-difluoro-4-methoxy-phenyl)-1-methyl-imidazole-2-carboxamide formate] reads 470 nM; that for `COc1ccc(-c2cnc(C(=O)Nc3ccc(C(=O)N4CCC(C(=O)N[C@H]5CNC[C@@H]5O)CC4)c(Cl)c3)n2C)c(F)c1F` [Example 72, 1-[2-chloro-4-[[5-(2,3-difluoro-4-methoxy-phenyl)-1-methyl-imidazole-2-carbonyl]amino]benzoyl]-N-[(3S,4S)-4-hydroxypyrrolidin-3-yl]piperidine-4-carboxamide formate], 50 nM.
